This is an account of results in patent publication US20250154163A1, “Pyrimidinone-Containing 17-Beta-Hydroxysteroid Dehydrogenase Type 13 Inhibitors” (ENANTA PHARMACEUTICALS, INC., priority 2023, published 2025).

SMILES strings stand for the structures. Where a name gives a salt, the structure may show the parent alone. Bounds are passed on as bounds.

Experiment [1] concerns the target T1, human HSD17β13 (stable HEK293T cell line overexpressing human HSD17β13) (Homo sapiens, UniProt Q7Z5P4).
T1 construct: expressed in transfected cells
T1 sequence (Q7Z5P4 20-300): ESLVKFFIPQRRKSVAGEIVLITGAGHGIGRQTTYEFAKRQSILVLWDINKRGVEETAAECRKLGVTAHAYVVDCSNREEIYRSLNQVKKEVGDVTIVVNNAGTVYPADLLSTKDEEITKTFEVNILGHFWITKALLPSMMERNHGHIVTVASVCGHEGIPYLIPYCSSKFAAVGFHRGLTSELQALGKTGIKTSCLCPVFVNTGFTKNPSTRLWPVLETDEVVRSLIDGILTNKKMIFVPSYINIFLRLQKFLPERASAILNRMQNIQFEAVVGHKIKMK
The experiment is described as follows: HSD17β13 inhibitor cell-based screening assay (conversion of estradiol-d2 to estrone-d2 by RF-MS). To be noted: conversion of estradiol-d2 to estrone-d2 after 24 hours. The method in brief: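 Cellular IC50 is based on 24-h conversion of estradiol-d2 (5 μM final) to estrone-d2, measured by RF-MS in acetonitrile-precipitated supernatants. Assay uses human HSD17β13-overexpressing HEK293T cells (7.5E3/well, 1% charcoal/dextran FBS MEM), with compounds dosed as a 9-point 1:3 series to 10 μM final. ATPlite luminescence on overexpressing and parent lines measured viability.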

Experiment [2] deals with T2, Recombinant human 17β-HSD13 (Homo sapiens, UniProt Q7Z5P4).
T2 construct: host or cells: Sf9 insect cells
T2 sequence (Q7Z5P4 20-300): T1 sequence (Q7Z5P4 20-300)
Nature of the experiment: 17β-HSD13 rapid-fire mass spectrometry assay (RF/MS assay). The settings on record: inhibition of 17β-HSD13, RF/MS assay; HSD17B13 80 nM, LTB4 10 μM, NAD+ 0.5 mM, RT 3 h. The format is biochemical. The source says: 17(3-HSD13 rapid-fire mass spectrometry assay (RF/MS assay). Recombinant human 17β-HSD13 was expressed and purified from sf9 cells at Charles River Labs (Saffron Walden, UK). Leukotriene B4 (Catalog #71160-24-2) and 12-oxoleukotriene B4 (Catalog #20140) were purchased from Cayman Chemicals (Ann Arbor, MI). NAD+ (Catalog #N8285), BSA (Catalog #A7030), DMSO (Catalog #D2650), and Tween-20 (Catalog #11332465001) were purchased from Sigma (St. Louis, MO). Formic acid (Catalog #28905) was from ThermoFisher Scientific and 384 deep well PP microplates (Catalog #784261) were from Greiner Bio-One. In a typical IC50 assay performed in a 384w PP microplate, test compounds (0-100 μM) were incubated with HSD17B13 (80 nM), LTB4 (10 μM), and NAD^+ (0.5 mM) in 10 μL assay buffer (20 mM Tris (pH 7.5), BSA (0.005%), and Tween-20 (0.01%)) at RT for 3 h. The assays were quenched by adding 20 μL of 0.15% aqueous formic acid and the plates were frozen at −80° C. RF/MS analysis was performed at PureHoney Technologies (Billerica, MA) on a RapidFire RF300 system (Agilent Technologies, Inc.) coupled to an API 4000 triple quadrupole mass spectrometer (Sciex) equipped with Agilent RapidFire cartridge type A (C4). The mobile phase was 0.09% formic acid and 0.01% trifluoracetic acid in water (Buffer A) and 0.09% formic acid and 0.01% trifluoracetic acid in 80% aqueous acetonitrile (Buffer B). The RapidFire method conditions were the following: 250 ms aspirate, 3000 ms load/desalt, 4000 ms elute, and 500 ms re-equilibrate. RF-MS/MS was performed in negative polarity (−4500 V), the source temperature was 650° C., and gas 1 and gas 2 settings for nitrogen were set to 50. The curtain gas and collision gas were also nitrogen and were set to 20 and 12, respectively. Leukotriene B4 (335.3) and 12-oxoLeukotriene B4 (333.3) SRM transitions were optimized with Discovery Quant software and extracted ion counts for these analytes were determined.
Data Analysis. 17β-HSD13 enzyme activity was measured as percent conversion of extracted ion counts and normalized to high and low controls to determine percent residual activity at various concentrations of test compounds. Data was fitted to normalized activity (variable slope) versus concentration fit in GraphPad Prism 7 to determine IC50. All experiments were run in duplicates.
By using the above method, the inhibition of 17β-HSD13 was evaluated for the compounds of Formula (I). IC50 ranges are as follows: A is <0.1 μM; B is 0.1 μM-1.0 μM; C is 1.0 μM-10 μm; and D is >10 μM.

Regarding `C=CCc1ccc2c(sc3nc(-c4ccc(OC)cc4C4CC4)n(Cc4cnco4)c(=O)c32)c1O` [Example 21, 7-allyl-2-(2-cyclopropyl-4-methoxyphenyl)-8-hydroxy-3-(oxazol-5-ylmethyl)benzo[4,5]thieno[2,3-d]pyrimidin-4(3H)-one], the IC50 in experiment [1] is 1000 to 100000 nM; in experiment [2] it was 100 to 1000 nM.
In the same order, the values of `CCCc1ccc2c(sc3nc(-c4ccc(OC)cc4C4CC4)n(Cc4cnco4)c(=O)c32)c1O` [Example 22, 2-(2-cyclopropyl-4-methoxyphenyl)-8-hydroxy-3-(oxazol-5-ylmethyl)-7-propylbenzo[4,5]thieno[2,3-d]pyrimidin-4(3H)-one] are 1000 to 100000 nM and 1000 to 10000 nM.
For the molecule `COc1ccc(-c2nc3sc4c(OS(=O)(=O)O)cccc4c3c(=O)n2Cc2cnco2)c(C2CC2)c1` [Example 23, 2-(2-cyclopropyl-4-methoxyphenyl)-3-(oxazol-5-ylmethyl)-4-oxo-3,4-dihydrobenzo[4,5]thieno[2,3-d]pyrimidin-8-yl hydrogen sulfate], the IC50 in experiment [1] was in the range of 1000 to 100000 nM; in experiment [2] it was 100 to 1000 nM.
As for `COc1ccc(-c2nc3sc4c(O)c(Br)ccc4c3c(=O)n2Cc2cnco2)c(C2CC2)c1` [Example 24, 7-bromo-2-(2-cyclopropyl-4-methoxyphenyl)-8-hydroxy-3-(oxazol-5-ylmethyl)benzo[4,5]thieno[2,3-d]pyrimidin-4(3H)-one], the IC50 in experiment [1] and in experiment [2] was less than 100 nM throughout.
Take `COc1ccc(-c2nc3sc4c(O)cccc4c3c(=O)n2Cc2ocnc2F)c(C2CC2)c1` [Example 25, 2-(2-cyclopropyl-4-methoxyphenyl)-3-((4-fluorooxazol-5-yl)methyl)-8-hydroxybenzo[4,5]thieno[2,3-d]pyrimidin-4(3H)-one]: the values for the IC50 in experiment [1] and in experiment [2] were 100 to 500 nM and less than 100 nM, respectively.
As for `COc1ccc(-c2nc3sc4c(O)c(N)ccc4c3c(=O)n2Cc2cnco2)c(C2CC2)c1` [Example 28, 7-amino-2-(2-cyclopropyl-4-methoxyphenyl)-8-hydroxy-3-(oxazol-5-ylmethyl)benzo[4,5]thieno[2,3-d]pyrimidin-4(3H)-one], the IC50 in experiment [1] lay in the range of 1000 to 100000 nM; in experiment [2], 100 to 1000 nM.
In the case of `COc1ccc(-c2nc3sc4c(ccc5[nH]c(=O)oc54)c3c(=O)n2Cc2cnco2)c(C2CC2)c1` [Example 29, 8-(2-cyclopropyl-4-methoxyphenyl)-7-(oxazol-5-ylmethyl)-3,7-dihydrooxazolo[5″,4″:3′,4′]benzo[1′,2′:4,5]thieno[2,3-d]pyrimidine-2,6-dione], the IC50 in experiment [1] is 500 to 1000 nM; in experiment [2], greater than 10000 nM.
Turning to `COc1ccc(-c2nc3sc4c(ccc5[nH]c(=O)[nH]c54)c3c(=O)n2Cc2cnco2)c(C2CC2)c1` [Example 30, 8-(2-cyclopropyl-4-methoxyphenyl)-7-(oxazol-5-ylmethyl)-3,7-dihydro-1H-imidazo[4″,5″:3′,4′]benzo[1′,2′:4,5]thieno[2,3-d]pyrimidine-2,6-dione], the IC50 in experiment [1] is 1000 to 100000 nM; in experiment [2], greater than 10000 nM.
For the molecule `COc1ccc(-c2nc3sc4c(O)c(C)ccc4c3c(=O)n2Cc2cnco2)c(C2CC2)c1` [Example 32, 2-(2-cyclopropyl-4-methoxyphenyl)-8-hydroxy-7-methyl-3-(oxazol-5-ylmethyl)benzo[4,5]thieno[2,3-d]pyrimidin-4(3H)-one], the results for the IC50 in experiment [1] and in experiment [2] were 100 to 500 nM and less than 100 nM, respectively.
On to `COc1ccc(-c2nc3sc4cc(O)ccc4c3c(=O)n2Cc2cnco2)c(C2CC2)c1` [Example 36, 2-(2-cyclopropyl-4-methoxyphenyl)-7-hydroxy-3-(oxazol-5-ylmethyl)benzo[4,5]thieno[2,3-d]pyrimidin-4(3H)-one], for which the results for the IC50 in experiment [1] and in experiment [2] were 1000 to 100000 nM and greater than 10000 nM, respectively.
With `COc1ccc(-c2nc3sc4c(O)c(Cl)ccc4c3c(=O)n2Cc2cc(C)no2)c(C2CC2)c1` [Example 39, 7-chloro-2-(2-cyclopropyl-4-methoxyphenyl)-8-hydroxy-3-((3-methylisoxazol-5-yl)methyl)benzo[4,5]thieno[2,3-d]pyrimidin-4(3H)-one], the IC50 in experiment [1] and in experiment [2] was less than 100 nM in each case.
For the molecule `O=c1c2c(nc(-c3ccc(F)cc3C3CC3)n1Cc1cc(C(F)(F)F)no1)sc1c(O)c(Cl)ccc12` [Example 40, 7-chloro-2-(2-cyclopropyl-4-fluorophenyl)-8-hydroxy-3-((3-(trifluoromethyl)isoxazol-5-yl)methyl)benzo[4,5]thieno[2,3-d]pyrimidin-4(3H)-one], the IC50 in experiment [1] and in experiment [2] was less than 100 nM each time.
For the molecule `CCc1ncc(Cn2c(-c3ccc(OC)cc3C3CC3)nc3sc4c(O)c(Cl)ccc4c3c2=O)s1` [Example 41, 7-chloro-2-(2-cyclopropyl-4-methoxyphenyl)-3-((2-ethylthiazol-5-yl)methyl)-8-hydroxybenzo[4,5]thieno[2,3-d]pyrimidin-4(3H)-one], the IC50 in experiment [1] and in experiment [2] was less than 100 nM in each case.
For `O=c1c2c(nc(-c3ccc(F)cc3C3CC3)n1Cc1cnco1)sc1c(O)c(Cl)ccc12` [Example 42, 7-chloro-2-(2-cyclopropyl-4-fluorophenyl)-8-hydroxy-3-(oxazol-5-ylmethyl)benzo[4,5]thieno[2,3-d]pyrimidin-4(3H)-one], the IC50 in experiment [1] and in experiment [2] was less than 100 nM each time.
Consider `Cc1cc(Cn2c(-c3ccc(F)cc3C3CC3)nc3sc4c(O)c(Cl)ccc4c3c2=O)on1` [Example 43, 7-chloro-2-(2-cyclopropyl-4-fluorophenyl)-8-hydroxy-3-((3-methylisoxazol-5-yl)methyl)benzo[4,5]thieno[2,3-d]pyrimidin-4(3H)-one], for which the IC50 in experiment [1] and in experiment [2] was less than 100 nM throughout.
In the case of `Cc1ncc(Cn2c(-c3ccc(F)cc3C3CC3)nc3sc4c(O)c(Cl)ccc4c3c2=O)o1` [Example 44, 7-chloro-2-(2-cyclopropyl-4-fluorophenyl)-8-hydroxy-3-((2-methyloxazol-5-yl)methyl)benzo[4,5]thieno[2,3-d]pyrimidin-4(3H)-one], the half-maximal inhibitory concentration (IC50) in experiment [1] and in experiment [2] was less than 100 nM throughout.
`COc1ccc(-c2nc3sc4c(O)c(Cl)ccc4c3c(=O)n2Cc2cc(C(F)(F)F)no2)c(C2CC2)c1` [Example 48, 7-chloro-2-(2-cyclopropyl-4-methoxyphenyl)-8-hydroxy-3-((3-(trifluoromethyl)isoxazol-5-yl)methyl)benzo[4,5]thieno[2,3-d]pyrimidin-4(3H)-one]: the IC50 in experiment [1] and in experiment [2] was less than 100 nM throughout.
As to `O=c1c2c(nc(-c3ccc(F)cc3C3CC3)n1Cc1cnc(C3CC3)o1)sc1c(O)c(Cl)ccc12` [Example 50, 7-chloro-2-(2-cyclopropyl-4-fluorophenyl)-3-((2-cyclopropyloxazol-5-yl)methyl)-8-hydroxybenzo[4,5]thieno[2,3-d]pyrimidin-4(3H)-one], the IC50 in experiment [1] and in experiment [2] was less than 100 nM each time.
On to `O=c1c2c(nc(-c3ccc(F)cc3C3CC3)n1Cc1ccno1)sc1c(O)c(Cl)ccc12` [Example 52, 7-chloro-2-(2-cyclopropyl-4-fluorophenyl)-8-hydroxy-3-(isoxazol-5-ylmethyl)benzo[4,5]thieno[2,3-d]pyrimidin-4(3H)-one], for which the IC50 in experiment [1] and in experiment [2] was less than 100 nM throughout.

One may read the IC50 as the concentration needed to halve the response being measured.
